# From patent US8026231B2, “Aminothiolester compounds, pharmaceutical and cosmetic compositions containing same and uses thereof” (CNRS, priority 2000, dated 2011)
# Legend:
# DU145 cells = test: Growth of DU145 cells (protein and DNA assay, 72 h); assay type: cell-based, human; settings: 50% inhibition of cell growth
# Protocol: The cells used correspond to two cell lines: metastatic cells of human prostate cancer (DU145) and murine lymphoid cells transfected with the human bcl2 gene (BAF3 bcl2).
# The procedure used for the tests on DU145 is as follows: • 10^5 cells are incubated in the various wells of a microplate in 1 ml of culture medium.
# The compounds are added 4 hours after placing the cells in the wells.
# After 72 hours, the cells are removed at different times. The DU145 cells are washed twice with PBS and recovered directly with 0.1M sodium chloride.
# The effect on the growth of the DU145 cells is measured by protein assay according to the Lowry method (Lowry, O. H., Rosenbrough, N. J., Farr, A. L. and Randall, J. Biol. Chem. 193, 265-275, (1951)) and DNA assay by the Hoechst method (West, D. C., Sattar, A. and Kumar, S., Anal. Biochem. 147, 289-295, (1985)).
# The IC50 concentration is the concentration corresponding to a 50% inhibition of cell growth.
# ALDH1 = test: Effect on the activity of ALDH1 after preincubation; assay type: biochemical, baker's yeast; settings: 400 μM
# Protocol: The procedure used is given below: 260 mU of ALDH from baker's yeast are preincubated at 37 or 0° C. in a mixture of 1 mM EDTA, 100 mM KCl, in 60 mM of sodium phosphate buffer pH 6 in a final volume of 200 μl.
# To each tube containing the 200 μl of mixture, the test compound is added to a concentration of 400 μM, with the exception of a control series which contains no test compound.
# The incubation carried out at 0° C. or at 37° C. is stopped by adding 100 μg of BSA (bovine serum albumin) and acetone at −20° C. to a final concentration of 80% in order to precipitate the proteins (ALDH and BSA). The tubes are left at −20° C. for 1 hour and then centrifuged at 10 000 rpm for 10 minutes and washed with 80% acetone. […]
# The reaction is started by adding 2 mM of propanal and the optical density (OD) is measured at 340 nm at T=0 and at T=5, 10, 20 and 30 minutes.
# The activity of the enzyme is measured by the variation in optical density Δ OD per minute (Quash G. et al., Enzymology and molecular biology of carbonyl metabolism, Weiner et al. eds., Kluwer Academic/Plenum Publishers, New York, 97-106).
# The percentage activity (A %) of the ALDH1 enzyme obtained at different preincubation times with the compound of Example 1 at 0° C. […] (represented by Δ) is measured as a function of the time t (expressed in minutes).
# BAF3-b0 cells = test: Apoptosis induction (DNA fragmentation) in BAF3-b0 cells, 24 h; assay type: cell-based, mouse
# Protocol: (§1) The BAF3-bcl2 cells correspond to BAF3 cells (mouse lymphocyte cells) tranfected with the bcl2 gene. Among these cells, four lines known as H16, G18, B14 and G21 overexpress the bcl2 gene.
# Hereinbelow, the cells known as BAF3-b0 correspond to BAF3 cells not transfected with the bcl2 gene.
# (§2) Whereas the BAF3-b0 cells undergo apoptosis (more than 80% of the cells) in the absence of interleukin 3 (IL3) in 16 hours [according to Collins, M. K. L., Marvel, J., Malde, P. & Lopez-Rivas, A., J. Exp. Med. 176, 1043-1051, (1992)], the BAF3-bcl2 cells show no sign of apoptosis in the absence of IL3. They are thus apoptosis-resistant.
# (§3) The procedure which was used is as follows: • The BAF3-b0 or BAF3-bcl2 cells, cultured in the presence of IL3, were labelled by a method adapted from that disclosed in Wright, S. et al., J. of Cell. Biochem. 48, 344-355, (1992).
# (§4) 10^5 cells/ml were incubated with 4.62 KBq.ml^−1 [^3H]-thymidine for 40 hours at 37° C. After two washes with culture medium, 2.5×10^6 cells were cultured in the presence of the test compound.
# (§5) After incubating for 24 hours, these cells were recovered by centrifugation at 400×g for 5 minutes and washed 3 times with PBS buffer. The cells recovered in the pellet were lysed in 2 ml of 0.1% Triton X-100, 20 mM EDTA, 5 mM Tris pH 8 and centrifuged at 30 000×g at 4° C. for 30 minutes.
# (§6) The supernatants were recovered and the pellets dissolved in 0.3 ml of 0.5N NaOH.
# (§7) Aliquots of the culture medium (1 ml), of the supernatant (0.3 ml) and of the dissolved pellet (0.1 ml) were assayed in a scintillation counter.
# (§8) The percentage of DNA fragments is calculated in the following way:
# (§9) The percentage of fragmentation of the DNA is a direct measure of the apoptosis which the cells have undergone.
# BAF3-bcl2 H16 cells = test: Apoptosis induction (DNA fragmentation) in BAF3-bcl2 clone H16, 24 h; assay type: cell-based, mouse
# Protocol: as §1, §2, §3, §4, §5, §6, §7, §8, §9
# L1210T cells = test: Growth of L1210T cells (L1210 bearing human ALDH1 cDNA); assay type: cell-based, mouse; settings: 50% inhibition of growth
# Protocol: The cells used correspond to various cell lines: human lung normal embryonic fibroblasts (MRC5), mouse melanoma cells (B16), mouse lymphocytic leukaemia cells (L1210) and L1210T cells obtained by infecting L1210 cells with a retroviral vector bearing human ALDH1 cDNA.
# The procedure used for the tests on the L1210 cells is as follows: • 10^5 cells are incubated in the various wells of a microplate in 1 ml of culture medium. After incubating for 4 hours, the test compounds are added to the wells containing the L1210 cells.
# For the L1210 cells, the growth is measured by counting the viable cells in the presence of 0.1% Trypan blue.
# The IC50 concentration is the concentration corresponding to a 50% inhibition of growth of the cells.
smiles,measurement,setting,value
"CSC(=O)C#CC(C)(C)N(C)C [Example 1, S-methyl 4-dimethyl-amino-4-methyl-2-pentynethioate]",IC50,DU145 cells,5.9 µM
same,Inhibition of the activity of the ALDH1 enzyme,ALDH1; pre-incubation at 0° C.,no effect of inhibition
same,Inhibition of the activity of the ALDH1 enzyme,ALDH1; pre-incubation at 37° C.,an effect of inhibition of the activity of the enzyme is observed
same,DNA fragmentation (%),"BAF3-b0 cells; b0, 1 μM",5.0%
same,DNA fragmentation (%),"BAF3-b0 cells; b0, 2 μM",10.6%
same,DNA fragmentation (%),"BAF3-b0 cells; b0, 4 μM",46.4%
same,DNA fragmentation (%),"BAF3-b0 cells; b0, 8 μM",71.1%
same,DNA fragmentation (%),"BAF3-bcl2 H16 cells; H16, 1 μM",2.9%
same,DNA fragmentation (%),"BAF3-bcl2 H16 cells; H16, 2 μM",6.3%
same,DNA fragmentation (%),"BAF3-bcl2 H16 cells; H16, 4 μM",65.3%
same,DNA fragmentation (%),"BAF3-bcl2 H16 cells; H16, 8 μM",94.2%
same,IC50,L1210T cells,1.6 µM
